Patent US20080141384A1, “Composition For Screening Anti-Hypertension Drug Comprising Mammal Tctp Gene or Its Protein Product, and Method For Screening Anti-Hypertension Drug Using Said Composition” (EWHA UNIVERSITY INDUSTRY COLLABORATION FOUNDATION, priority 2003, published 2008)

Legend:
[1] = test system: Na/K APTase pump; assay: FACS analysis of intracellular Na+ using a Na-sensitive dye; type: cell-based; details: FACS with Na-sensitive dye, versus control group (Mock); FIG. 1b
Experimental: To confirm the above results again, FACS analysis was performed using a Na-sensitive dye.

[2] = test system: Na/K APTase pump; assay: Na/K APTase pump activity by 86Rb+ uptake in RBL-2H3 cells; type: cell-based; details: 10-20 μg/ml TCTP added, 86Rb+ tracer, versus control without TCTP, FIG. 1a
Experimental: The Na/K APTase pump inhibitory activity of the TCTP protein contained in the inventive composition was examined. As it was already known that TCTP interacts with the Na/K APTase pump, a test was performed to examine if the interaction has any effect on the activity of the Na/K APTase pump inhibitory activity.
RBL-2H3 cells were cultured at a suitable density and washed three times with Krebs-Ringer buffer (KRP, 140 mM NaCl, 5 mM KCl, 10 mM Na2HPO4, 1 mM MgSO4, 1.4 mM CaCl2, 2.5 mM glucose, pH 7.4). Subsequently, the cells were incubated at 37° C. for 15 minutes, and added with 0.1% BSA-containing KRP buffer containing 1 mM ouabain.
To measure the transport of K^+ ions caused by the Na/K APTase pump, cultivation was performed for 5-10 minutes using an ^86Rb^+([…], NEN) tracer having high sensitivity to ouabain, and 10-20 μg/ml TCTP was added. Also, a control group to which TCTP had not been added was prepared.

[3] = biological target: Na/K-ATPase pump; assay: cell-based or functional assay

Substance | intracellular Na+ concentration [1] | activity of the Na/K APTase pump (reduced to) [2] [%] | activity of the Na/K APTase pump (ouabain-sensitive 86Rb+ uptake in RBL-2H3 cells, 10-20 ug/ml TCTP against a control without TCTP) [3] [%]
TCTP: Translationally controlled tumor protein (IgE-dependent histamine-releasing factor), amino acid sequence of SEQ ID NO: 2; cytoplasmic inhibitor of the Na/K-ATPase pump | increased the intracellular Na^+ concentration | 53.5 | –
Translationally controlled tumor protein (TCTP) (from UniProt P13693 1-172) | – | – | 53.5
